The values below come from ChEMBL document CHEMBL1138847, “Improved structure-activity relationship analysis of HIV-1 protease inhibitors using interaction kinetic data” (J Med Chem, 2004).

Assay [1] has as its target T1, Human immunodeficiency virus type 1 protease (Human immunodeficiency virus 1, UniProt Q72874). In words: Binding affinity for human immunodeficiency virus type 1 protease.
Assay [2] has as its system MT4. Description: Effective dose of compound required to inhibit replication of human immunodeficiency virus type 1 in MT-4 cells. The format is functional. Conditions: read-out: ED50 (the source's name).
For assay [3], the target named is Human immunodeficiency virus type 1 protease (Human immunodeficiency virus 1) (UniProt Q72874).
Description: Dissociation rate constant for human immunodeficiency virus type 1 protease
Assay [4] has the same target. The source holds these as a separate data set.
Description: Association rate constant for human immunodeficiency virus type 1 protease
Assay [5] concerns the target T1, Human immunodeficiency virus type 1 protease. In words: Inhibition constant for human immunodeficiency virus type 1 protease.

A word on the Kd: it is a measure of binding affinity in units of concentration. Read a high Kd as weaker binding. As to `O=C(NC1c2ccccc2C[C@H]1O)[C@H](O)C[C@@H](O)[C@@H](Oc1ccccc1)C(=O)NC1c2ccccc2C[C@@H]1O` (stereo partly drawn), the affinity in assay [1], expressed as Kd, was 35.8 nM. Moreover, the EC50 in assay [2] came to 1440 nM. The compound further yielded a k off in assay [3] of 0.02 s⁻¹. Moreover, the k on in assay [4] turned out to be 666000 M⁻¹ s⁻¹.

Broadly, the Ki is the dissociation constant of the complex between target and ligand, obtained from inhibition or displacement. A higher Ki goes with weaker binding. As to `CC(NO)c1cccc(CN2[C@H](COc3ccccc3)[C@H](O)[C@@H](O)[C@@H](COc3ccccc3)N(Cc3cccc(C(C)NO)c3)S2(=O)=O)c1` (stereo partly drawn), in assay [1], the Kd is 169 nM. Besides, the EC50 in assay [2] was found to be 2900 nM. In assay [5], this compound came in with a Ki of 5.6 nM. The same compound had a k off in assay [3] of 0.04 s⁻¹. Moreover, the k on in assay [4] came out at 512000 M⁻¹ s⁻¹.

For the compound `CC(C)c1nc(CN(C)C(=O)N[C@H](C(=O)N[C@@H](Cc2ccccc2)C[C@H](O)[C@H](Cc2ccccc2)NC(=O)OCc2cncs2)C(C)C)cs1` [RITONAVIR], the EC50 in assay [2] came to 50 nM.

As to `CC(C)[C@H](C)C(=O)NC(=O)[C@H](O)[C@H](O)[C@@H](O)[C@@H](Oc1ccc(Br)cc1)C(=O)NC(=O)[C@@H](C)C(C)C`, in assay [1], the Kd was found to be 21.1 nM. Also, the EC50 in assay [2] is 650 nM. This compound also came in with a Ki in assay [5] of 0.3 nM. Moreover, the k off in assay [3] is 0.00169 s⁻¹.

The compound `CC(C)[C@H](C)C(=O)NC(=O)[C@H](O)[C@H](O)[C@@H](O)[C@@H](Oc1ccc(CCc2ccccc2)cc1)C(=O)NC(=O)[C@@H](C)C(C)C` displayed an equilibrium dissociation constant (Kd) in assay [1] of 34.2 nM. In addition, the EC50 in assay [2] came to 2050 nM. In addition, the Ki in assay [5] worked out at 0.8 nM. This compound registered a k off in assay [3] of 0.00163 s⁻¹. The compound further returned a k on in assay [4] of 81100 M⁻¹ s⁻¹.

In assay [1], `CC(C)[C@H](C)C(=O)NC(=O)[C@H](O)[C@H](O)[C@@H](O)[C@@H](Oc1ccc(-c2cccc([N+](=O)[O-])c2)cc1)C(=O)NC(=O)[C@@H](C)C(C)C` came in with a Kd of 18.2 nM. The EC50 in assay [2] was 160 nM. Also, the Ki in assay [5] was determined as 1.4 nM. For the same compound, the k off in assay [3] turned out to be 0.000817 s⁻¹. For the same compound, the k on in assay [4] stood at 181000 M⁻¹ s⁻¹.

Take `CC(C)CN(C[C@@H](O)[C@H](Cc1ccccc1)NC(=O)O[C@H]1CCOC1)S(=O)(=O)c1ccc(N)cc1`: binding in assay [1] was put at a Kd of 1.1 nM. In assay [2], the EC50 is 80 nM. Also, the affinity in assay [5], expressed as Ki, was 0.23 nM. Moreover, the k off in assay [3] stood at 0.00488 s⁻¹. The compound also displayed a k on in assay [4] of 4.43e+06 M⁻¹ s⁻¹.

Take `O=S1(=O)N(Cc2ccc(CO)cc2)[C@H](COc2ccccc2)[C@H](O)[C@@H](O)[C@@H](COc2ccccc2)N1Cc1ccc(CO)cc1`: the EC50 in assay [2] amounted to 1550 nM. The k off in assay [3] is 0.0273 s⁻¹.

In assay [1], `O=C(NC1c2ccccc2C[C@@H]1O)[C@H](O)[C@H](O)[C@@H](O)[C@@H](Oc1ccccc1)C(=O)NC1c2ccccc2C[C@@H]1O` (stereo partly drawn) displayed a Kd of 13.9 nM. Moreover, the EC50 in assay [2] stood at 100 nM. In assay [5], this compound registered a Ki of 0.6 nM. In assay [3], this compound came in with a k off of 0.01 s⁻¹. The k on in assay [4] worked out at 6.39e+06 M⁻¹ s⁻¹.

As to `CC(C)(C)NC(=O)c1ccccc1NC[C@@H](O)[C@H](Cc1ccccc1)NC(=O)[C@H](CC(N)=O)NC(=O)OCc1ccccc1`, the EC50 in assay [2] is 3310 nM.

In turn, `CC(C)[C@H](C)C(=O)NC(=O)[C@H](O)[C@@H](O)[C@H](O)[C@@H](Oc1ccccc1)C(=O)NC(=O)[C@@H](C)C(C)C` showed a Kd in assay [1] of 2990 nM. In assay [2], the EC50 was determined as 22900 nM. The same compound came in with a Ki in assay [5] of 40 nM. In assay [3], the k off is 0.02 s⁻¹. In assay [4], this compound displayed a k on of 9200 M⁻¹ s⁻¹.

In assay [1], `Cc1cc(NS(=O)(=O)c2ccc(N)cc2)no1` [SULFAMETHOXAZOLE] yielded a Kd of 577 nM. Besides, in assay [2], the EC50 is more than 79000 nM. This compound also displayed a Ki in assay [5] of 10.1 nM. This compound also returned a k off in assay [3] of 0.06 s⁻¹. In assay [4], this compound returned a k on of 188000 M⁻¹ s⁻¹.

Regarding `CC(C)[C@H](C)C(=O)NC(=O)[C@H](O)[C@H](O)[C@@H](O)[C@@H](Oc1ccc(C2=C(O)C(=O)CCC2)cc1)C(=O)NC(=O)[C@@H](C)C(C)C`, binding in assay [1] was characterised by a dissociation constant (Kd) of 17.5 nM. Also, the EC50 in assay [2] came out at 5600 nM. Affinity in assay [5] was put at a Ki of 0.3 nM. Besides, the k off in assay [3] came out at 0.000487 s⁻¹. Further, the k on in assay [4] stood at 29300 M⁻¹ s⁻¹.

With `COC(=O)/C=C/c1ccc(O[C@@H](C(=O)NC(=O)[C@@H](C)C(C)C)[C@H](O)[C@@H](O)[C@@H](O)C(=O)NC(=O)[C@@H](C)C(C)C)cc1`, in assay [1], the dissociation constant (Kd) was found to be 1.95 nM. Moreover, in assay [2], the EC50 stood at 2580 nM. In assay [5], the Ki is 0.09 nM. The compound also showed a k off in assay [3] of 0.000365 s⁻¹. The k on in assay [4] came out at 204000 M⁻¹ s⁻¹.

For `CC(C)[C@H](C)C(=O)NC(=O)[C@H](O)[C@H](O)[C@@H](O)[C@@H](Oc1ccccc1)C(=O)NC1c2ccccc2C[C@@H]1O` (stereo partly drawn), binding in assay [1] was characterised by a dissociation constant (Kd) of 4.42 nM. Moreover, the EC50 in assay [2] stood at 120 nM. For the same compound, in assay [5], the inhibition constant Ki was 0.05 nM. The compound further displayed a k off in assay [3] of 0.02 s⁻¹. Also, the k on in assay [4] was determined as 5.97e+06 M⁻¹ s⁻¹.

The compound `CCO[C@@H](C(=O)NC(=O)[C@@H](C)C(C)C)[C@H](O)[C@@H](O)[C@@H](O)C(=O)NC(=O)[C@@H](C)C(C)C` gave a Kd in assay [1] of 38400 nM. Besides, in assay [2], the EC50 was more than 192000 nM. For the same compound, the k off in assay [3] is 0.00485 s⁻¹. The same compound came in with a k on in assay [4] of 134 M⁻¹ s⁻¹.

On to `CC(C)(C)NC(=O)[C@@H]1C[C@@H]2CCCC[C@@H]2CN1C[C@@H](O)[C@H](Cc1ccccc1)NC(=O)[C@H](CC(N)=O)NC(=O)c1ccc2ccccc2n1`, for which the EC50 in assay [2] was 10 nM.

`COC(=O)N[C@H](C(=O)N[C@@H](Cc1ccccc1)[C@@H](O)CN(Cc1ccc(-c2ccccn2)cc1)NC(=O)[C@@H](NC(=O)OC)C(C)(C)C)C(C)(C)C` [ATAZANAVIR] gave a Kd in assay [1] of 0.4 nM. For the same compound, the EC50 in assay [2] was 6 nM. The same compound gave a Ki in assay [5] of 0.24 nM. Moreover, the k off in assay [3] is 0.00069 s⁻¹. The compound also showed a k on in assay [4] of 1.67e+06 M⁻¹ s⁻¹.

As for `Cc1c(O)cccc1C(=O)N[C@@H](CSc1ccccc1)[C@H](O)CN1C[C@H]2CCCC[C@H]2C[C@H]1C(=O)NC(C)(C)C`, the EC50 in assay [2] was found to be 20 nM.

With `CC(C)[C@H](C)C(=O)NC(=O)[C@H](O)[C@H](O)[C@@H](O)[C@@H](Oc1ccccc1)C(=O)NC(=O)[C@@H](C)C(C)C`, in assay [1], the Kd was found to be 10.8 nM. The EC50 in assay [2] worked out at 1320 nM. The Ki in assay [5] stood at 0.4 nM. Besides, the k off in assay [3] amounted to 0.00367 s⁻¹. This compound displayed a k on in assay [4] of 355000 M⁻¹ s⁻¹.

With `Cc1cccc(C)c1OCC(=O)N[C@@H](Cc1ccccc1)[C@@H](O)C[C@H](Cc1ccccc1)NC(=O)[C@H](C(C)C)N1CCCNC1=O` [LOPINAVIR], in assay [2], the EC50 was 10 nM. In assay [3], the k off stood at 0.000654 s⁻¹. This compound registered a k on in assay [4] of 6.63e+06 M⁻¹ s⁻¹.

With `C[C@@H](Cc1ccc(O)cc1)C(=O)NC(=O)[C@H](O)[C@H](O)[C@@H](O)[C@@H](Oc1ccccc1)C(=O)NC(=O)[C@@H](C)Cc1ccc(O)cc1`, in assay [1], the affinity, expressed as Kd, was 309000 nM. The EC50 in assay [2] is more than 67000 nM. The same compound had a Ki in assay [5] of 5000 nM. This compound came in with a k off in assay [3] of 0.06 s⁻¹. The k on in assay [4] was determined as 172 M⁻¹ s⁻¹.

Regarding `CC(C)[C@H](C)C(=O)NC(=O)[C@H](O)[C@H](O)[C@@H](O)[C@@H](Oc1ccc(-c2ccccn2)cc1)C(=O)NC(=O)[C@@H](C)C(C)C`, binding in assay [1] was characterised by a dissociation constant (Kd) of 1.18 nM. Also, the EC50 in assay [2] stood at 640 nM. The affinity in assay [5], expressed as Ki, was 0.61 nM. This compound showed a k off in assay [3] of 0.000373 s⁻¹. For the same compound, the k on in assay [4] worked out at 323000 M⁻¹ s⁻¹.

As to `CC(C)[C@H](C)C(=O)NC(=O)[C@H](O)[C@H](O)[C@@H](O)[C@@H](Oc1ccc(-c2nccs2)cc1)C(=O)NC(=O)[C@@H](C)C(C)C`, binding in assay [1] was characterised by a dissociation constant (Kd) of 0.64 nM. The EC50 in assay [2] was found to be 240 nM. Further, the Ki in assay [5] was 0.55 nM. The compound also came in with a k off in assay [3] of 0.000303 s⁻¹. The same compound had a k on in assay [4] of 477000 M⁻¹ s⁻¹.

On to `CC(C)(C)NC(=O)c1ccccc1NC[C@H](O)[C@H](Cc1ccccc1)NC(=O)[C@H](CC(N)=O)NC(=O)c1ccc2ccccc2n1`, for which, in assay [2], the EC50 is 10100 nM.

Take `CC(C)(C)NC(=O)[C@@H]1CN(Cc2cccnc2)CCN1C[C@@H](O)C[C@@H](Cc1ccccc1)C(=O)N[C@H]1c2ccccc2C[C@H]1O`: the EC50 in assay [2] worked out at 50 nM.

In assay [1], `CC(C)[C@H](C)C(=O)NC(=O)[C@H]([O-])[C@H](O)[C@@H](O)[C@@H](Oc1ccc(C2=CC=[S+]C2)cc1)C(=O)NC(=O)[C@@H](C)C(C)C` showed a Kd of 3.04 nM. For the same compound, the EC50 in assay [2] was 40 nM. For the same compound, in assay [5], the affinity corresponds to a Ki of 1.2 nM. This compound also gave a k off in assay [3] of 0.000432 s⁻¹. The same compound gave a k on in assay [4] of 348000 M⁻¹ s⁻¹.
